Test results reported in ChEMBL document CHEMBL4680113, “Tigliane Diterpenoids as a New Type of Antiadipogenic Agents Inhibit GRα-Dexras1 Axis in Adipocytes” (J Med Chem, 2019).
Activity calls are given as the source filed them. No cut-off for these calls is given here.

Legend:
3T3-L1 [1] = experiment: Inhibition of adipogenic cocktail-induced C/EBPbeta protein expression in mouse 3T3-L1 cells incubated for 24 hrs by Western blot analysis; type: functional, cell-based
3T3-L1 [2] = experiment: Inhibition of cell differentiation in mouse 3T3-L1 cells assessed as reduction in adipogenic cocktail-induced triglyceride levels at 1 uM incubated for 0 to 6 days by GPO-POD assay; type: functional, cell-based; conditions: time 0-6 day
3T3-L1 [3] = experiment: Inhibition of adipogenic cocktail-induced C/EBPalpha protein expression in mouse 3T3-L1 cells incubated for 24 hrs by Western blot analysis; type: functional, cell-based
3T3-L1 [4] = experiment: Inhibition of adipogenic cocktail-induced SCD1 mRNA expression in mouse 3T3-L1 cells incubated for 6 days by RT-qPCR analysis; type: functional, cell-based; conditions: time 6.0 day
3T3-L1 [5] = experiment: Inhibition of adipogenic cocktail-induced FAS mRNA expression in mouse 3T3-L1 cells incubated for 6 days by RT-qPCR analysis; type: functional, cell-based; conditions: time 6.0 day
3T3-L1 [6] = experiment: Inhibition of adipogenic cocktail-induced ACC protein expression in mouse 3T3-L1 cells incubated for 6 days by Western blot analysis; type: functional, cell-based; conditions: time 6.0 day
3T3-L1 [7] = experiment: Inhibition of adipogenic cocktail-induced FAS protein expression in mouse 3T3-L1 cells incubated for 6 days by Western blot analysis; type: functional, cell-based; conditions: time 6.0 day
3T3-L1 [8] = experiment: Inhibition of adipogenic cocktail-induced GR-alpha protein expression in mouse 3T3-L1 cells at 1 to 10 uM incubated for 4 to 24 hrs by Western blot analysis; type: functional, cell-based; conditions: dose 1-10 µM, time 4-24 hrs
3T3-L1 [9] = experiment: Inhibition of adipogenic cocktail-induced GR-alpha nuclear translocation in mouse 3T3-L1 cells at 1 uM after 8 hrs by Western blot analysis; type: cell-based
3T3-L1 [10] = experiment: Inhibition of adipogenic cocktail-induced GR-alpha nuclear translocation in mouse 3T3-L1 cells at 1 uM after 8 hrs by immunofluorescence assay; type: cell-based
3T3-L1 [11] = experiment: Inhibition of adipogenic cocktail-induced GR-beta nuclear translocation in mouse 3T3-L1 cells at 1 uM after 8 hrs by immunofluorescence assay; type: cell-based
3T3-L1 [12] = experiment: Inhibition of adipogenic cocktail-induced PPARgamma mRNA expression in mouse 3T3-L1 cells at 1 uM after 1 day in presence of GR-alpha siRNA by RT-qPCR analysis; type: functional, cell-based
3T3-L1 [13] = experiment: Inhibition of GR-alpha in mouse 3T3-L1 cells assessed as reduction in GR-alpha interaction with PPAR-gamma at 1 uM incubated for 8 hrs by ChIP assay; type: cell-based
HepG2 = experiment: Lipid lowering activity in human HepG2 cells assessed as reduction in high-glucose induced triglyceride levels at 1 uM incubated for 6 days in presence of Dexras1 siRNA by GPO-POD assay; type: functional, cell-based; conditions: time 6.0 day
3T3-L1 [14] = experiment: Lipid lowering activity in mouse 3T3-L1 cells assessed as reduction in methylprednisolone-induced triglyceride levels at 1 uM incubated for 6 days by GPO-POD assay; type: functional, cell-based; conditions: time 6.0 day
3T3-L1 [15] = experiment: Inhibition of methylprednisolone-induced PPARgamma mRNA expression in mouse 3T3-L1 cells at 1 uM by RT-qPCR analysis; type: functional, cell-based
3T3-L1 [16] = experiment: Inhibition of GR-alpha in mouse 3T3-L1 cells assessed as reduction in adipogenic cocktail-induced Dexras1 mRNA expression at 1 uM incubated for 4 hrs by RT-qPCR analysis; type: cell-based
3T3-L1 [17] = experiment: Inhibition of GR-alpha in mouse 3T3-L1 cells assessed as reduction in methylprednisolone-induced Dexras1 mRNA expression at 1 uM incubated for 4 hrs by RT-qPCR analysis; type: cell-based

| Compound | inhibition (3T3-L1 [1]) | inhibition (3T3-L1 [2]) | inhibition (3T3-L1 [3]) | inhibition (3T3-L1 [4]) | inhibition (3T3-L1 [5]) | inhibition (3T3-L1 [6]) | inhibition (3T3-L1 [7]) | inhibition (3T3-L1 [8]) | inhibition (3T3-L1 [9]) | inhibition (3T3-L1 [10]) | inhibition (3T3-L1 [11]) | inhibition (3T3-L1 [12]) | inhibition (3T3-L1 [13]) | inhibition (HepG2) | inhibition (3T3-L1 [14]) | inhibition (3T3-L1 [15]) | inhibition (3T3-L1 [16]) | inhibition (3T3-L1 [17]) |
| --- | --- | --- | --- | --- | --- | --- | --- | --- | --- | --- | --- | --- | --- | --- | --- | --- | --- | --- |
| CC1=C[C@@H]2[C@@H](C1=O)[C@H](O)C(C)=C[C@H]1[C@@H]3C(C)(C)[C@]3(OC(=O)C(C)C)[C@H](OC(=O)c3ccccc3)[C@@H](C)[C@]21O | Dose-dependent effect | inactive | Dose-dependent effect | Dose-dependent effect | Dose-dependent effect | Dose-dependent effect | Dose-dependent effect | inactive | Active | Active | inactive | Active | Active |  |  |  |  |  |
| CC(=O)O[C@@H]1C(C)=C[C@H]2[C@@H]3C(C)(C)[C@]3(OC(=O)C(C)C)[C@H](OC(=O)c3ccccc3)[C@@H](C)[C@]2(O)[C@@H]2C=C(C)C(=O)[C@@H]12 | Dose-dependent effect | inactive | Dose-dependent effect | Dose-dependent effect | Dose-dependent effect | Dose-dependent effect | Dose-dependent effect | inactive | Active | Active | inactive | Active | Active | Active | Active | Active | Active | Active |
